These are literature values, as cited in patent publication US10912731B2, “Biphasic oral care compositions” (Colgate-Palmolive Company, priority 2017, dated 2021).

The structures appear in SMILES notation.

For the data set the following is noted: aqueous solution.

`NCCCC[C@H](N)C(=O)O` [lysine]: the Isoelectric point is reported as 9.7 pH.
